From patent US7087433B2, “7SK RNA regulated transcription” (The Regents of the University of California, priority 2002, dated 2006)
Starred links: 1 amine or outer side, 2 acyl side, 3 side chain; linkers in the order of their positions; H or OH if unused. Positions of bridges follow the written chain, without caps; N, C: chain ends. Non-standard residues stand in square brackets, D forms with d. Residues, ends and D or L forms follow the SMILES beside them. Chains are numbered I, II in the order given. Actinocin(9to1) = Cc1c2oc3c(C)ccc(C(=O)[*:1])c3nc-2c(C(=O)[*:2])c(N)c1=O; NMeV = CN[C@H](C(=O)O)C(C)C; Sar = CNCC(=O)O

B1: RNase A: ribonuclease used to degrade the CDK9-Flag-associated 7SK (protein, UniProt P61823 27-150, looked up)
Ribonuclease pancreatic: KETAAAKFERQHMDSSTSAASSSNYCNQMMKSRNLTKDRCKPVNTFVHESLADVQAVCSQKNVACKNGQTNCYQSYSTMSITDCRETGSSKYPNCAYKTTQANKHIIVACEGNPYVPVHFDASV

What was measured:
[1] = tested on: 7SK/P-TEFb interaction; test: 7SK/P-TEFb interaction in nuclear extracts of treated F1C2 cells; type: cell-based, human; settings: nuclear extract
Excerpt: Certain agents that elicit SOS-like stress responses in mammalian cells can markedly enhance HIV-1 transcription in a manner analogous to prophage induction in Escherichia coli (6–8,20,21). […] In light of these observations, we investigated the effect of ultraviolet irradiation and actinomycin D on the 7SK/P-TEFb interaction in nuclear extracts of the treated F1C2 cells. […] Neither the level of total 7SK in the nuclear extract nor the CDK9/cyclin T1 interaction was affected. […] As for ultraviolet irradiation, 7SK was dissociated from P-TEFb as early as 15–30 min after treatment, long before any signs of apoptosis appeared. Thus, stress signals such as ultraviolet irradiation and actinomycin D can cause fast and efficient 7SK dissociation from P-TEFb, which explains their positive effects on HIV-1 transcription and Pol II phosphorylation.

[2] = molecular target: T1, 7SK/P-TEFb interaction (Homo sapiens, UniProt P50750); test: Direct incubation with nuclear extract, 7SK/P-TEFb interaction; type: binding
T1 construct: expressed in transfected cells; host or cells: F1C2 cell line (HeLa stably transfected with pBabe-puro-CDK9-Flag)

[3] = tested on: HIV-1 transcription; settings: HeLa cells, low levels of drug; cited from earlier work
[4] = tested on: CDK9/cyclin T1 kinase; test: CDK9-Flag kinase reaction with purified RNA Pol II as substrate; type: biochemical, human; settings: affinity-purified CDK9-Flag; degradation of associated 7SK
Experimental: 7SK could inhibit the activity of P-TEFb by suppressing the kinase activity of CDK9/cyclin T1. Affinity-purified CDK9-Flag and its associated factors were divided into two halves, incubated respectively with RNase A and DNase I, and tested in kinase reactions containing purified RNA Pol II as a substrate (9). […] This increase was significant given that only about 50% of the purified CDK9-Flag/cyclin T1 was associated with 7SK. […] To analyse more specifically the activity of P-TEFb bound to 7SK, this complex was affinity purified from HeLa nuclear extract using the 7SK antisense 2′-OMe RNA beads. Eluted with a displacement deoxyoligonucleotide (15), the P-TEFb bound to 7SK was divided into three equal portions, incubated respectively with RNase A, DNase I or buffer alone, and analysed in kinase reactions.

T1 sequence (P50750 whole entry): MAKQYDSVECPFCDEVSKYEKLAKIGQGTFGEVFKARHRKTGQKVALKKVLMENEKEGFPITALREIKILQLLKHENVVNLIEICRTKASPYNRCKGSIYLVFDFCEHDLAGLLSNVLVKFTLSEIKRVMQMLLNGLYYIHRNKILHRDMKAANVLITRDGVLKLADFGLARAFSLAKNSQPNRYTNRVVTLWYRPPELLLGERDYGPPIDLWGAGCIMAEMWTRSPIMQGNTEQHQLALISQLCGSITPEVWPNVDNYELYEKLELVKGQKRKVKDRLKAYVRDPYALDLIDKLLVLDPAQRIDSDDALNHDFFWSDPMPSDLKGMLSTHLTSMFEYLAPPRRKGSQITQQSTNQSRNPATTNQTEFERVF
T1 sequence (O60563 whole entry partner): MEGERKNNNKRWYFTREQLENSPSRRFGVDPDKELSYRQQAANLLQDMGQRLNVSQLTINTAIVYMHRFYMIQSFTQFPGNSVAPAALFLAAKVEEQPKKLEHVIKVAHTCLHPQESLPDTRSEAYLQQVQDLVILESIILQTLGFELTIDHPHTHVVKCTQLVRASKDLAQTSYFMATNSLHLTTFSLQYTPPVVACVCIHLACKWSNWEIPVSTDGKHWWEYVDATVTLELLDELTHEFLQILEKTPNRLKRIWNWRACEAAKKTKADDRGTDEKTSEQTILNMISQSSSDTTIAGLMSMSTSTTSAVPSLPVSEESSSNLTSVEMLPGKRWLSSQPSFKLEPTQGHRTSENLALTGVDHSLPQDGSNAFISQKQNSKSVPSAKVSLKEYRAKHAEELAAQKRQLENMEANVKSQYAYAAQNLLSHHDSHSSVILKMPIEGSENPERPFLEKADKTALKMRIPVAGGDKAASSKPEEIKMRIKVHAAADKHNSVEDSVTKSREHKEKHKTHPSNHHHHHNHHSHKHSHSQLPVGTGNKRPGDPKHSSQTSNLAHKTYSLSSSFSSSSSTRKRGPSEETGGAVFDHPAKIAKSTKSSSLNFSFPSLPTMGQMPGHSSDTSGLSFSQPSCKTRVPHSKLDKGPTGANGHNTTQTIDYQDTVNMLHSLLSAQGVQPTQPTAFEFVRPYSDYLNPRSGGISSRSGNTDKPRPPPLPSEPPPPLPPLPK

Row | Molecule | amount of 7SK associated with affinity-purified CDK9-Flag [1] | 7SK/P-TEFb interaction [2] | HIV-1 transcription [3] | increase of kinase activity of CDK9-Flag (autophosphorylation and phosphorylation of Pol II) [4]
1 | Cc1c2oc3c(C)ccc(C(=O)N[C@@H]4C(=O)N[C@H](C(C)C)C(=O)N5CCC[C@H]5C(=O)N(C)CC(=O)N(C)[C@@H](C(C)C)C(=O)O[C@@H]4C)c3nc-2c(C(=O)N[C@@H]2C(=O)N[C@H](C(C)C)C(=O)N3CCC[C@H]3C(=O)N(C)CC(=O)N(C)[C@@H](C(C)C)C(=O)O[C@@H]2C)c(N)c1=O [actinomycin D] (I: T[dV]P[Sar][NMeV] / II: T[dV]P[Sar][NMeV]; ester I:1-I:C, II:1-II:C; linker I:N-II:N via Actinocin(9to1)) | significantly reduced the amount of 7SK associated with the affinity-purified CDK9-Flag | did not disrupt the 7SK/P-TEFb interaction | enhances HIV-1 transcription to levels similar to those obtained by Tat | –
2 | B1 | – | – | – | 3-4 fold
